Data published in patent US9061030B2, “sGC stimulators” (IRONWOOD PHARMACEUTICALS, INC., priority 2010, dated 2015).

Biological target: T1, Human soluble guanylate cyclase enzyme (hsGC) (Homo sapiens, UniProt Q02108+Q02153)
T1 construct: purchased Enzo Inc. ALX-201-177
T1 sequence (Q02153 1-619): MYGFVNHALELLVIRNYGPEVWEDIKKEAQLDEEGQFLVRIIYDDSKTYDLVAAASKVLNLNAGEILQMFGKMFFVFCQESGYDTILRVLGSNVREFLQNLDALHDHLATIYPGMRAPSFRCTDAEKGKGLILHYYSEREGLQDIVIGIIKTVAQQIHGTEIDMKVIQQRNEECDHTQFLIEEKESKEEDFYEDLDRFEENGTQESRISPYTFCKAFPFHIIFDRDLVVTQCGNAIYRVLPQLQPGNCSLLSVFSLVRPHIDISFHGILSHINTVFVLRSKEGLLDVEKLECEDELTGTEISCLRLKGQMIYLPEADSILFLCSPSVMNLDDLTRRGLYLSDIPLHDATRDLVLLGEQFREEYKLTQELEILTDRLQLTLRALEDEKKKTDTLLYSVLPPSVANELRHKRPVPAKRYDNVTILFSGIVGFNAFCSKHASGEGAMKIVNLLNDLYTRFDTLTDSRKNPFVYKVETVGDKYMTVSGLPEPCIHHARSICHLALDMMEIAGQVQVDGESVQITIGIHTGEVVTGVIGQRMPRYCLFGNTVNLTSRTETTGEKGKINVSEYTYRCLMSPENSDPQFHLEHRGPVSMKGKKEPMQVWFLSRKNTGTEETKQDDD
T1 sequence (Q02108 1-690): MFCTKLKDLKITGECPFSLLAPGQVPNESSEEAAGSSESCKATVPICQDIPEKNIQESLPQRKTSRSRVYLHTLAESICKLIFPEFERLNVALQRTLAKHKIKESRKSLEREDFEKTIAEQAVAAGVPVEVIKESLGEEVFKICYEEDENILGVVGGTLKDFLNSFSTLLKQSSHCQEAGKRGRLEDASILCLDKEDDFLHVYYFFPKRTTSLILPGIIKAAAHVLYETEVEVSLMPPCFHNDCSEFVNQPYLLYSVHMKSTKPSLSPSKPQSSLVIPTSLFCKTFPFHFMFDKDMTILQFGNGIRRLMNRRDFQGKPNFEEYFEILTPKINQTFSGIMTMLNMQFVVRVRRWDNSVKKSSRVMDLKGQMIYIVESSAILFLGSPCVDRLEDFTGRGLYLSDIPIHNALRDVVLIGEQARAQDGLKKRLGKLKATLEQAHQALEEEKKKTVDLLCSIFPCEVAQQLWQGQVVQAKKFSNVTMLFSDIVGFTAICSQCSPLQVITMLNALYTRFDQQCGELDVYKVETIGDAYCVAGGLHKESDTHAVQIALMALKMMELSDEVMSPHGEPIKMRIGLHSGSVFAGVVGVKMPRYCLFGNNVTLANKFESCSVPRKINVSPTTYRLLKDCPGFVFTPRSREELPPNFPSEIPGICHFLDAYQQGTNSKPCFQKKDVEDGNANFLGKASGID
Experiment: Purified human sGC enzyme activity assay (with or without SNP)
Type: biochemical
Details: for sGC Enzyme Activity Increase at 30 μM with SNP / sGC Enzyme Activity Increase at 30 μM without SNP: 30 μM compound
Procedure, shortened: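 Purified human sGC (5 ng) incubated 30 min at 37° C with compound at 10 or 30 μM, 300 μM GTP, 2 mM MgCl2 and 1 mM IBMX at pH 8.0, with or without 1 μM SNP. cGMP formed was quantified against a standard curve. Results are given as fold-change in specific activity over DMSO (or DMSO+SNP) control.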

[1] = 1 μM SNP, specific activity vs DMSO and SNP
[2] = without SNP, specific activity vs DMSO control

SMILES	sGC Enzyme Activity Increase at 30 μM with SNP [1]	sGC Enzyme Activity Increase at 30 μM without SNP [2]	sGC Enzyme Activity Increase at 10 μM with SNP (10 μM compound, 1 μM SNP, specific activity vs DMSO and SNP)	sGC Enzyme Activity Increase at 10 μM without SNP (10 μM compound, without SNP, specific activity vs DMSO control)
Fc1ccccc1Cn1nc(-c2ncccn2)nc1-c1cocn1 [Compound I-46]	C (C = 2 to <5 fold increase)	B (B = 1 to <2 fold increase)	–	–
Nc1ccnc(-c2nc(-c3nccs3)n(Cc3ccccc3F)n2)c1 [Compound I-44]	F (F = 20 to <50 fold increase)	D (D = 5 to <10 fold increase)	–	–
Fc1ccc(-c2nc(-c3nccs3)n(Cc3ccccc3F)n2)nc1 [Compound I-38]	E (E = 10 to <20 fold increase)	C (C = 2 to <5 fold increase)	–	–
Nc1ccnc(-c2nc(-c3nccs3)n(Cc3ccccc3F)n2)n1 [Compound I-48, 2-(1-(2-fluorobenzyl)-5-(thiazol-2-yl)-1H-1,2,4-triazol-3-yl)pyrimidin-4-amine]	D (D = 5 to <10 fold increase)	C (C = 2 to <5 fold increase)	–	–
Nc1ccnc(-c2nc(-c3cscn3)n(Cc3ccccc3F)n2)c1 [Compound I-53, 2-(1-(2-fluorobenzyl)-5-(thiazol-4-yl)-1H-1,2,4-triazol-3-yl)pyridin-4-amine]	F (F = 20 to <50 fold increase)	D (D = 5 to <10 fold increase)	–	–
Fc1ccccc1Cn1nc(-c2ccccn2)nc1-c1cscn1 [Compound I-4]	E (E = 10 to <20 fold increase)	C (C = 2 to <5 fold increase)	–	–
Fc1ccccc1Cn1nc(-c2ccccn2)nc1-n1cncn1 [Compound I-50, 2′-(2-fluorobenzyl)-5′-(pyridin-2-yl)-2′H-1,3′-bi(1′,2′,4-triazole)]	C (C = 2 to <5 fold increase)	B (B = 1 to <2 fold increase)	–	–
Fc1ccccc1Cn1nc(-c2cscn2)nc1-c1nccs1 [Compound I-40]	D (D = 5 to <10 fold increase)	B (B = 1 to <2 fold increase)	–	–
Fc1ccccc1Cn1nc(-c2nccs2)nc1-c1cscn1 [Compound I-41]	E (E = 10 to <20 fold increase)	C (C = 2 to <5 fold increase)	–	–
Fc1ccccc1Cn1nc(-c2ccccn2)nc1-c1nccs1 [Compound I-25]	E (E = 10 to <20 fold increase)	D (D = 5 to <10 fold increase)	–	–
COC(=O)N(C)c1c(N)nc(-c2nc(-c3nccs3)n(Cc3ccccc3F)n2)nc1N [Compound I-61, methyl 4,6-diamino-2-(1-(2-fluorobenzyl)-5-(thiazol-2-yl)-1H-1,2,4-triazol-3-yl)pyrimidin-5-yl(methyl)carbamate]	D (D = 5 to <10 fold increase)	C (C = 2 to <5 fold increase)	–	–
Fc1ccccc1Cn1nc(-c2ccccn2)nc1-c1cocn1 [Compound I-12, 4-(1-(2-fluorobenzyl)-3-(pyridin-2-yl)-1H-1,2,4-triazol-5-yl)oxazole]	E (E = 10 to <20 fold increase)	C (C = 2 to <5 fold increase)	–	–
Fc1ccccc1Cn1nc(-c2ncccn2)nc1-c1cscn1 [Compound I-3]	D (D = 5 to <10 fold increase)	B (B = 1 to <2 fold increase)	–	–
Fc1ccccc1Cn1nc(-c2ccccn2)nc1-c1ccccn1 [Compound I-1]	C (C = 2 to <5 fold increase)	C (C = 2 to <5 fold increase)	B (B = 1 to <2 fold increase)	B (B = 1 to <2 fold increase)
Fc1ccccc1Cn1nc(-c2ccccn2)nc1-c1ncco1 [Compound I-6]	D (D = 5 to <10 fold increase)	D (D = 5 to <10 fold increase)	–	–
Fc1ccccc1Cn1nc(-c2ncccn2)nc1-c1nccs1 [Compound I-30]	C (C = 2 to <5 fold increase)	B (B = 1 to <2 fold increase)	–	–
